From patent US20220062240A1, “METHODS OF TREATING CANCER USING A CLK INHIBITOR” (BioSplice Therapeutics, Inc., priority 2018, published 2022)
Where two headings read alike, the source gives them in different places.

Columns and labels:
[1] = system: ovarian cancer (4 cell lines); test: CellTiter-Glo Viability Assay, ovarian cancer; type: cell-based; conditions: Homo sapiens, inhibition of cancer cell proliferation
Description: (§1) Fifty-one human cancer cell lines (breast cancer (8 cell lines), colorectal cancer (6 cell lines), haematopoietic & lymphoid tumors (13 cell lines), liver cancer (3 cell lines), lung cancer (4 cell lines), ovarian cancer (4 cell lines), pancreatic cancer (8 cell lines), and prostate cancer (5 cell lines)) were tested to determine the effects of representative compounds of Formulas (I)-(XII) on cellular proliferation, as evaluated using the CellTiter-Glo® Viability Assay.
(§2) For the Cell Viability Assays, cells were plated at 300-3,000 cells/well in 384-well plates in their respective media containing 1% Penicillin-Streptomycin and incubated for four days at 37° C. and 5% CO2. Twenty-eight replicates of DMSO-treated cells served as controls and cells treated with compound were performed in duplicate.
(§3) After incubation, 10 μL of CellTiter-Glo® (Promega) was added to each well allowed to incubate for approximately 12 minutes. This reagent results in cell lysis and generation of a luminescent signal proportional to the amount of ATP present. The amount of ATP is directly proportional to the number of metabolically active, viable cells present in culture. The CellTiter-Glo® Assay generates a luminescent signal, produced by the luciferase reaction (Promega.com).
(§4) After incubation, the luminescence signal was read using an EnVision™ Multilabel Plate Reader (Perkin Elmer). Dose-response curves were generated and EC50 concentration values were calculated using Dotmatics' Studies Software (Bishops Stortford, UK).

[2] = system: liver cancer (3 cell lines); test: CellTiter-Glo Viability Assay, liver cancer; type: cell-based; conditions: Homo sapiens, inhibition of cancer cell proliferation
Description: as §1, §2, §3, §4

[3] = molecular target: T1, CLK2 (Homo sapiens, UniProt P49760); test: CLK2 kinase activity assay (Z-lyte, Ser/Thr 6 peptide); type: biochemical; conditions: recombinant CLK2 kinase, ATP 60 μM; read-out: EC50
T1 construct: purchased Thermo Fisher (Life Technologies), Z'-LYTE Kinase Assay Kits
Description: All reactions were performed in duplicate.

[4] = system: BT-549; test: CellTiter-Glo Viability Assay, breast cancer; type: cell-based; conditions: Homo sapiens, 96 h; BT-549, breast cancer, four days; read-out: EC50
Description: as §1, §2, §3, §4

[5] = system: CAMA1; test: CellTiter-Glo Viability Assay, breast cancer; type: cell-based; conditions: Homo sapiens, CAMA-1, 96 h; CAMA1, breast cancer, four days; read-out: EC50
Description: as §1, §2, §3, §4

[6] = system: HCC1599; test: CellTiter-Glo Viability Assay, breast cancer; type: cell-based; conditions: Homo sapiens, 96 h; HCC1599, breast cancer, four days; read-out: EC50
Description: as §1, §2, §3, §4

[7] = system: DU4475; test: CellTiter-Glo Viability Assay, breast cancer; type: cell-based; conditions: Homo sapiens, DU-4475, 96 h; DU4475, breast cancer, four days; read-out: EC50
Description: as §1, §2, §3, §4

[8] = system: T47D; test: CellTiter-Glo Viability Assay, breast cancer; type: cell-based; conditions: Homo sapiens, 96 h, breast cancer, four days, read-out: EC50
Description: as §1, §2, §3, §4

[9] = system: MCF7; test: CellTiter-Glo Viability Assay, breast cancer; type: cell-based; conditions: Homo sapiens, 96 h; MCF7, breast cancer, four days; read-out: EC50
Description: as §1, §2, §3, §4

[10] = system: MDA-MB-231-Luc; test: CellTiter-Glo Viability Assay, breast cancer; type: cell-based; conditions: Homo sapiens, 96 h; MDA-MB-231-Luc, breast cancer, four days; read-out: EC50
Description: as §1, §2, §3, §4

[11] = molecular target: CLK3 (Homo sapiens, UniProt P49761); test: CLK3 kinase activity assay (Z-lyte, Ser/Thr 18 peptide)
[12] = system: pancreatic cancer (8 cell lines); test: CellTiter-Glo Viability Assay, pancreatic cancer; type: cell-based; conditions: Homo sapiens, inhibition of cancer cell proliferation
Description: as §1, §2, §3, §4

[13] = system: prostate cancer (5 cell lines); test: CellTiter-Glo Viability Assay, prostate cancer; type: cell-based; conditions: Homo sapiens
Description: as §1, §2, §3, §4

[14] = system: lung cancer (4 cell lines); test: CellTiter-Glo Viability Assay, lung cancer; type: cell-based; conditions: Homo sapiens, inhibition of cancer cell proliferation
Description: as §1, §2, §3, §4

[15] = system: haematopoietic & lymphoid tumors (13 cell lines); test: CellTiter-Glo Viability Assay, haematopoietic & lymphoid tumors; type: cell-based; conditions: Homo sapiens, inhibition of cancer cell proliferation
Description: as §1, §2, §3, §4

[16] = system: all 50 cell lines; test: CellTiter-Glo Viability Assay, average across all cell lines; type: cell-based; conditions: Homo sapiens; across all 50 cell lines; read-out: average EC50 for inhibition of cancer cell proliferation
Description: as §1, §2, §3, §4

[17] = system: colorectal cancer (6 cell lines); test: CellTiter-Glo Viability Assay, colorectal cancer; type: cell-based; conditions: Homo sapiens, inhibition of cancer cell proliferation
Description: as §1, §2, §3, §4

Sequence of CLK3 (P49761 whole entry): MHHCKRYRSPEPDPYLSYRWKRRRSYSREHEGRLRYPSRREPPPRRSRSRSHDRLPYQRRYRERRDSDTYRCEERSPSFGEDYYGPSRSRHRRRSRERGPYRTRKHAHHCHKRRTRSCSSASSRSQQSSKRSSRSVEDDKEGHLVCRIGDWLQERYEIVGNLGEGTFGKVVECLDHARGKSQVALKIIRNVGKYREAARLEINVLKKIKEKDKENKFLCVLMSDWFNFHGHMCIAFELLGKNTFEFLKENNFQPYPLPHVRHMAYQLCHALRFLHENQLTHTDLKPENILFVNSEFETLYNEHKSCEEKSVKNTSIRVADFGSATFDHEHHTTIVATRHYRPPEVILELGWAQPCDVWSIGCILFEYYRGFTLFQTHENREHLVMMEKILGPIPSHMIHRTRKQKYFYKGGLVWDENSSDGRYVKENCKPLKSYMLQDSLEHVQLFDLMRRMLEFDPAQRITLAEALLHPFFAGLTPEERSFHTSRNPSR
T1 sequence (P49760 whole entry): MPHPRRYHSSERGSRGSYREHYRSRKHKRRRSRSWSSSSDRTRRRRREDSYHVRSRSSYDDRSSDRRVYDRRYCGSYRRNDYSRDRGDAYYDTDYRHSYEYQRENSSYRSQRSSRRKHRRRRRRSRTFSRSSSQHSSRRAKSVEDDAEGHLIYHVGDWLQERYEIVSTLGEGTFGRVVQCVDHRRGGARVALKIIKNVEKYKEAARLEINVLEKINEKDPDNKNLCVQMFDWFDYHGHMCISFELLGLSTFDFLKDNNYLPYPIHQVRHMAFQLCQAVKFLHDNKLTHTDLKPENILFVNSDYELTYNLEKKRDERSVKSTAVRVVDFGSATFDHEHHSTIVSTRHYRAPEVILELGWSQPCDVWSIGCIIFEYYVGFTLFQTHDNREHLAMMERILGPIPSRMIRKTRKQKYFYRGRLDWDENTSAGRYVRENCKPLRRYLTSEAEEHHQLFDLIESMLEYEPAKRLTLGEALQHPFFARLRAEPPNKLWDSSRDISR

Compound CN1CCN(c2cc(C(=O)Nc3cc4cc(-c5nnc(N(C)C)s5)ccc4cn3)ccn2)CC1 [Compound 84] has an EC50 ([1]; PA-1, PA1 cell line, read-out: Ovarian cancer, EC50 (μM) PA1) of 0.643 µM, an EC50 ([1]; TOV112D, TOV-112D cell line, read-out: Ovarian cancer, EC50 (μM) TOV-112D) of 0.61 µM and an EC50 ([1]; OV-90 cell line, read-out: Ovarian cancer, EC50 (μM) OV-90) of 1.64 µM. For the same compound, the EC50 ([1]; OVCAR-3 cell line, read-out: Ovarian cancer, EC50 (μM) OVCAR-3) was 0.446 µM, the EC50 ([2]; SNU-398, SNU398 cell line, read-out: Liver cancer, EC50 SNU398) was 234 nM and the EC50 ([2]; HEPG2 cell line, read-out: Liver cancer, EC50 HEPG2) was 734 nM. For the same compound, the EC50 ([2]; PLC/PRF/5 cell line, read-out: Liver cancer, EC50 PLC/PRF/5) was 1930 nM, the EC50 [3] was 2.9 nM and the EC50 [4] was 1240 nM. It also gave an EC50 [5] of 1220 nM, an EC50 [6] of 1130 nM and an EC50 [7] of 640 nM. It also gave an EC50 [8] of 1430 nM, an EC50 [9] of 2560 nM and an EC50 [10] of 1100 nM. For the same compound, the EC50 [11] was 27.2 nM, the EC50 ([12]; BXPC-3, BxPC3 cell line, read-out: Pancreatic cancer, EC50 BxPC3) was 2070 nM and the EC50 ([12]; CAPAN-1, Capan1 cell line, read-out: Pancreatic cancer, EC50 Capan1) was 1120 nM. For the same compound, the EC50 ([12]; Capan-2, Capan2 cell line, read-out: Pancreatic cancer, EC50 Capan2) was 1290 nM, the EC50 ([12]; MIA PaCa-2 cell line, read-out: Pancreatic cancer, EC50 MIA PaCa-2) was 461 nM and the EC50 ([12]; PANC 05.04 cell line, read-out: Pancreatic cancer, EC50 PANC 05.04) was 1190 nM. It also gave an EC50 ([12]; PANC-1 cell line, read-out: Pancreatic cancer, EC50 PANC-1) of 1830 nM, an EC50 ([12]; UPAFII cell line, read-out: Pancreatic cancer, EC50 UPAFII) of 593 nM and an EC50 ([13]; DU-145, read-out: Prostate cancer EC50 Du-145) of 1040 nM. It also gave an EC50 ([13]; PC-3, PC3 cell line, inhibition of cancer cell proliferation, read-out: Prostate cancer EC50 PC3) of 848 nM, an EC50 ([13]; 22Rv1 cell line, inhibition of cancer cell proliferation, read-out: Prostate cancer EC50 22Rv1) of 847 nM and an EC50 ([13]; LNCap clone FGC cell line, inhibition of cancer cell proliferation, read-out: Prostate cancer EC50 LNCap clone FGC) of 1540 nM. The EC50 ([13]; VCaP (Sigma) cell line, inhibition of cancer cell proliferation, read-out: Prostate cancer EC50 VCaP (Sigma)) was 3500 nM, the EC50 ([14]; A-427, A427 cell line, read-out: Lung cancer, EC50 (μM) A427) was 0.856 µM and the EC50 ([14]; HCC78, HCC-78 cell line, read-out: Lung cancer, EC50 (μM) HCC-78) was 1.47 µM. It also gave an EC50 ([14]; NCI-H460 cell line, read-out: Lung cancer, EC50 (μM) NCI-H460) of 1.26 µM, an EC50 ([14]; NCI-H522 cell line, read-out: Lung cancer, EC50 (μM) NCI-H522) of 0.553 µM and an EC50 ([15]; DND41, DND-41 cell line, read-out: Haematopoietic & Lymphoid tumors, EC50 (μM) DND-41) of 0.914 µM. The EC50 ([15]; MV4-11, MV-4-11 cell line, read-out: Haematopoietic & Lymphoid tumors, EC50 (μM) MV-4-11) was 0.316 µM, the EC50 ([15]; Rec1, REC-1 cell line, read-out: Haematopoietic & Lymphoid tumors, EC50 (μM) REC-1) was 0.23 µM and the EC50 ([15]; SU-DHL-4, SUDHL4 cell line, read-out: Haematopoietic & Lymphoid tumors, EC50 (μM) SUDHL4) was 0.972 µM. For the same compound, the EC50 ([15]; HL-60 cell line, read-out: Haematopoietic & Lymphoid tumors, EC50 (μM) HL-60) was 2.59 µM, the EC50 ([15]; JM1 cell line, read-out: Haematopoietic & Lymphoid tumors, EC50 (μM) JM1) was 0.216 µM and the EC50 ([15]; JURKAT, Clone E6-1 cell line, read-out: Haematopoietic & Lymphoid tumors, EC50 (μM) JURKAT, Clone E6-1) was 1.62 µM. It also gave an EC50 ([15]; JeKo-1 cell line, read-out: Haematopoietic & Lymphoid tumors, EC50 (μM) JeKo-1) of 0.319 µM, an EC50 ([15]; KASUMI-1 cell line, read-out: Haematopoietic & Lymphoid tumors, EC50 (μM) KASUMI-1) of 0.842 µM and an EC50 ([15]; Loucy cell line, read-out: Haematopoietic & Lymphoid tumors, EC50 (μM) Loucy) of 0.78 µM. It also gave an EC50 ([15]; MOLT-4 cell line, read-out: Haematopoietic & Lymphoid tumors, EC50 (μM) MOLT-4) of 0.965 µM, an EC50 ([15]; TF-1 cell line, read-out: Haematopoietic & Lymphoid tumors, EC50 (μM) TF-1) of 1.31 µM and an EC50 ([15]; TOLEDO cell line, read-out: Haematopoietic & Lymphoid tumors, EC50 (μM) TOLEDO) of 0.3 µM. It also gave an EC50 [16] of 1040 nM, an EC50 ([17]; HCT-116, HCT116 cell line, read-out: Colorectal cancer, EC50 (μM) HCT116) of 0.396 µM and an EC50 ([17]; HT-29, HT29 cell line, read-out: Colorectal cancer, EC50 (μM) HT29) of 1.13 µM. It also gave an EC50 ([17]; SW-620, SW620 cell line, read-out: Colorectal cancer, EC50 (μM) SW620) of 0.26 µM, an EC50 ([17]; DLD-1 cell line, read-out: Colorectal cancer, EC50 (μM) DLD-1) of 0.658 µM and an EC50 ([17]; SW48 cell line, read-out: Colorectal cancer, EC50 (μM) SW48) of 0.185 µM. The EC50 ([17]; SW480 cell line, read-out: Colorectal cancer, EC50 (μM) SW480) was 0.551 µM.
